Assay results reported in US20230106592A1, “METHOD FOR TREATING CANCER USING A COMBINATION OF DNA DAMAGING AGENTS AND ATR INHIBITORS” (Vertex Pharmaceuticals Incorporated, priority 2015, published 2023).

Experiment: Phase I trial, combination with carboplatin: adverse events and DLTs
Assay type: in vivo, human
Experimental: Pts with advanced solid tumors enrolled in 2 sequential parts.
In part A, single pt cohorts received a compound of Formula A-2 once weekly in 21-day cycles with 3+3 dose escalation cohorts being implemented if grade 2 drug-related adverse events (AEs) occurred. […] If a DLT was reported, the cohort was expanded to include 3 additional pts with subsequent dose escalation being permitted if no further DLTs occurred. Paired pre- and post-treatment biopsies from selected pts in part B were assessed for pCHK1 levels by immunohistochemistry. Models based on preclinical and clinical data were used to simulate hematologic toxicities and pCHK1 inhibition for pts treated with a compound of Formula A-2 and CP.

[1] = A-2 90 mg/m2 + Carboplatin AUC 5 (n = 3)
[2] = A-2 90 mg/m^2 + Carboplatin AUC5 (N = 6)
[3] = A-2 120 mg/m2 + Carboplatin AUC 4 (n = 3)
[4] = A-2 120 mg/m2 + Carboplatin AUC 5 (n = 3)
[5] = A-2 120 mg/m^2 + Carboplatin AUC4 (N = 3)

CNCc1ccc(-c2cc(-c3nc(-c4ccc(S(=O)(=O)C(C)C)cc4)cnc3N)on2)cc1 [Compound A-2]
Treatment related adverse event: Alopecia, All Grades [1]: 2 (20.0) n (%) | Treatment related adverse event: Alopecia, Grade ≥ 3 [1]: 0 n (%) | Treatment related adverse event: Anemia, All Grades [1]: 4 (40.0) n (%) | Treatment related adverse event: Anemia, Grade ≥ 3 [1]: 0 n (%) | Treatment related adverse event: Any Event, All Grades [1]: 9 (90.0) n (%) | Treatment related adverse event: Any Event, Grade ≥ 3 [1]: 1 (10.0) n (%) | Treatment related adverse event: Fatigue, All Grades [1]: 4 (40.0) n (%) | Treatment related adverse event: Fatigue, Grade ≥ 3 [1]: 0 n (%) | Treatment related adverse event: Flushing, All Grades [1]: 1 (10.0) n (%) | Treatment related adverse event: Flushing, Grade ≥ 3 [1]: 0 n (%) | Treatment related adverse event: Headache, All Grades [1]: 0 n (%) | Treatment related adverse event: Headache, Grade ≥ 3 [1]: 0 n (%) | Treatment related adverse event: Hypersensitivity, All Grades [1]: 0 n (%) | Treatment related adverse event: Hypersensitivity, Grade ≥ 3 [1]: 0 n (%) | Treatment related adverse event: Infusion related reaction, All Grades [1]: 1 (10.0) n (%) | Treatment related adverse event: Infusion related reaction, Grade ≥ 3 [1]: 0 n (%) | Treatment related adverse event: Nausea, All Grades [1]: 3 (30.0) n (%) | Treatment related adverse event: Nausea, Grade ≥ 3 [1]: 0 n (%) | Treatment related adverse event: Neuropathy peripheral, All Grades [1]: 0 n (%) | Treatment related adverse event: Neuropathy peripheral, Grade ≥ 3 [1]: 0 n (%) | Treatment related adverse event: Neutropenia, All Grades [1]: 3 (30.0) n (%) | Treatment related adverse event: Neutropenia, Grade ≥ 3 [1]: 1 (10.0) n (%) | Treatment related adverse event: Pruritus, All Grades [1]: 1 (10.0) n (%) | Treatment related adverse event: Pruritus, Grade ≥ 3 [1]: 0 n (%) | Treatment related adverse event: Thrombocytopenia, All Grades [1]: 2 (20.0) n (%) | Treatment related adverse event: Thrombocytopenia, Grade ≥ 3 [1]: 0 n (%) | Treatment related adverse event: Vomiting, All Grades [1]: 0 n (%) | Treatment related adverse event: Vomiting, Grade ≥ 3 [1]: 0 n (%) | Treatment related adverse event: Alopecia, All [2]: 2 | Treatment related adverse event: Alopecia, ≥3 [2]: 0 | Treatment related adverse event: Anemia, All [2]: 3 | Treatment related adverse event: Anemia, ≥3 [2]: 0 | Treatment related adverse event: Fatigue, All [2]: 3 | Treatment related adverse event: Fatigue, ≥3 [2]: 0 | Treatment related adverse event: Flushing, All [2]: 0 | Treatment related adverse event: Flushing, ≥3 [2]: 0 | Treatment related adverse event: Headache, All [2]: 0 | Treatment related adverse event: Headache, ≥3 [2]: 0 | Treatment related adverse event: Hypertension, All [2]: 0 | Treatment related adverse event: Hypertension, ≥3 [2]: 0 | Treatment related adverse event: Nausea, All [2]: 1 | Treatment related adverse event: Nausea, ≥3 [2]: 0 | Treatment related adverse event: Neuropathy peripheral, All [2]: 0 | Treatment related adverse event: Neuropathy peripheral, ≥3 [2]: 0 | Treatment related adverse event: Neutropenia, All [2]: 2 | Treatment related adverse event: Neutropenia, ≥3 [2]: 1 | Treatment related adverse event: Respiratory tract infection, ≥3 [2]: 0 | Treatment related adverse event: Thrombocytopenia, All [2]: 2 | Treatment related adverse event: Thrombocytopenia, ≥3 [2]: 0 | Treatment related adverse event: Vomiting, All [2]: 0 | Treatment related adverse event: Vomiting, ≥3 [2]: 0 | Treatment related adverse event: Alopecia, All Grades [3]: 0 n (%) | Treatment related adverse event: Alopecia, Grade ≥ 3 [3]: 0 n (%) | Treatment related adverse event: Anemia, All Grades [3]: 1 (33.3) n (%) | Treatment related adverse event: Anemia, Grade ≥ 3 [3]: 0 n (%) | Treatment related adverse event: Any Event, Grade ≥ 3 [3]: 0 n (%) | Treatment related adverse event: Fatigue, All Grades [3]: 0 n (%) | Treatment related adverse event: Fatigue, Grade ≥ 3 [3]: 0 n (%) | Treatment related adverse event: Flushing, All Grades [3]: 1 (33.3) n (%) | Treatment related adverse event: Flushing, Grade ≥ 3 [3]: 0 n (%) | Treatment related adverse event: Headache, All Grades [3]: 0 n (%) | Treatment related adverse event: Headache, Grade ≥ 3 [3]: 0 n (%) | Treatment related adverse event: Hypersensitivity, All Grades [3]: 0 n (%) | Treatment related adverse event: Hypersensitivity, Grade ≥ 3 [3]: 0 n (%) | Treatment related adverse event: Infusion related reaction, All Grades [3]: 0 n (%) | Treatment related adverse event: Infusion related reaction, Grade ≥ 3 [3]: 0 n (%) | Treatment related adverse event: Nausea, All Grades [3]: 1 (33.3) n (%) | Treatment related adverse event: Nausea, Grade ≥ 3 [3]: 0 n (%) | Treatment related adverse event: Neuropathy peripheral, All Grades [3]: 0 n (%) | Treatment related adverse event: Neuropathy peripheral, Grade ≥ 3 [3]: 0 n (%) | Treatment related adverse event: Neutropenia, All Grades [3]: 0 n (%) | Treatment related adverse event: Neutropenia, Grade ≥ 3 [3]: 0 n (%) | Treatment related adverse event: Pruritus, All Grades [3]: 1 (33.3) n (%) | Treatment related adverse event: Pruritus, Grade ≥ 3 [3]: 0 n (%) | Treatment related adverse event: Thrombocytopenia, All Grades [3]: 1 (33.3) n (%) | Treatment related adverse event: Thrombocytopenia, Grade ≥ 3 [3]: 0 n (%) | Treatment related adverse event: Vomiting, All Grades [3]: 0 n (%) | Treatment related adverse event: Vomiting, Grade ≥ 3 [3]: 0 n (%) | Treatment related adverse event: Alopecia, All Grades [4]: 0 n (%) | Treatment related adverse event: Alopecia, Grade ≥ 3 [4]: 0 n (%) | Treatment related adverse event: Anemia, Grade ≥ 3 [4]: 0 n (%) | Treatment related adverse event: Any Event, All Grades [4]: 3 (100) n (%) | Treatment related adverse event: Fatigue, All Grades [4]: 1 (33.3) n (%) | Treatment related adverse event: Fatigue, Grade ≥ 3 [4]: 0 n (%) | Treatment related adverse event: Flushing, All Grades [4]: 0 n (%) | Treatment related adverse event: Flushing, Grade ≥ 3 [4]: 0 n (%) | Treatment related adverse event: Headache, All Grades [4]: 0 n (%) | Treatment related adverse event: Headache, Grade ≥ 3 [4]: 0 n (%) | Treatment related adverse event: Hypersensitivity, All Grades [4]: 1 (33.3) n (%) | Treatment related adverse event: Hypersensitivity, Grade ≥ 3 [4]: 1 (33.3) n (%) | Treatment related adverse event: Infusion related reaction, All Grades [4]: 1 (33.3) n (%) | Treatment related adverse event: Infusion related reaction, Grade ≥ 3 [4]: 0 n (%) | Treatment related adverse event: Nausea, Grade ≥ 3 [4]: 0 n (%) | Treatment related adverse event: Neuropathy peripheral, All Grades [4]: 0 n (%) | Treatment related adverse event: Neuropathy peripheral, Grade ≥ 3 [4]: 0 n (%) | Treatment related adverse event: Neutropenia, Grade ≥ 3 [4]: 1 (33.3) n (%) | Treatment related adverse event: Pruritus, All Grades [4]: 0 n (%) | Treatment related adverse event: Pruritus, Grade ≥ 3 [4]: 0 n (%) | Treatment related adverse event: Thrombocytopenia, All Grades [4]: 1 (33.3) n (%) | Treatment related adverse event: Thrombocytopenia, Grade ≥ 3 [4]: 0 n (%) | Treatment related adverse event: Vomiting, All Grades [4]: 0 n (%) | Treatment related adverse event: Vomiting, Grade ≥ 3 [4]: 0 n (%) | Treatment related adverse event: Alopecia, All [5]: 0 | Treatment related adverse event: Alopecia, ≥3 [5]: 0 | Treatment related adverse event: Anemia, All [5]: 1 | Treatment related adverse event: Anemia, ≥3 [5]: 0 | Treatment related adverse event: Fatigue, All [5]: 0 | Treatment related adverse event: Fatigue, ≥3 [5]: 0 | Treatment related adverse event: Flushing, All [5]: 1 | Treatment related adverse event: Flushing, ≥3 [5]: 0 | Treatment related adverse event: Headache, All [5]: 0 | Treatment related adverse event: Headache, ≥3 [5]: 0 | Treatment related adverse event: Hypertension, All [5]: 0 | Treatment related adverse event: Hypertension, ≥3 [5]: 0 | Treatment related adverse event: Nausea, All [5]: 1 | Treatment related adverse event: Nausea, ≥3 [5]: 0 | Treatment related adverse event: Neuropathy peripheral, All [5]: 0 | Treatment related adverse event: Neuropathy peripheral, ≥3 [5]: 0 | Treatment related adverse event: Neutropenia, All [5]: 0 | Treatment related adverse event: Neutropenia, ≥3 [5]: 0 | Treatment related adverse event: Respiratory tract infection, All [5]: 0 | Treatment related adverse event: Respiratory tract infection, ≥3 [5]: 0 | Treatment related adverse event: Thrombocytopenia, All [5]: 1 | Treatment related adverse event: Thrombocytopenia, ≥3 [5]: 0
